Patent publication US20100286035A1, “NEUROMEDIN U DERIVATIVE” (Takeda Pharmaceutical Company Limited, priority 2007, published 2010)

Tests used:
male C57BL/6J mice = experiment: Test Example 2: antifeedant activity of NMU-23 and NMU-8 in mice; format: in vivo; conditions: peripheral administration
Method: 7 weeks old male C57BL/6J mice (mean bodyweight: 25 g) delivered from the Japan Charles River Company were raised for 5 to 10 days after delivery under a feeding environment regulated for temperature and humidity with lighting time (25° C., 12 hours of lighted period and 12 hours of dark period, light was lit at 8:00). Four animals were placed in one cage. After handling the mice for 5 to 8 days, the animals were housed singly in each cage where a floor mesh was spread and acclimated by intraperitoneal injection for 3 days prior to the administration of a peptide. The animals acclimated were fasted for 16 hours from 18:00 prior to the administration of the peptide. However, the animals had free access to drinking water. […] After the injection of the peptide solution, MF feed which had been weighed (Oriental Yeast Industry) was given freely to the mice. Further, the residual amount of the feed was measured after 3, 6 and 24 hours. The food intakes at 3, 6 and 24 hours were calculated by subtracting the residual amount of the feed after 3, 6 and 24 hours from the amount of the feed that was originally given.
[In FIG. 2, * and ** tested by T-tests indicated to be lower at the levels of significance of 0.05 and 0.01 (P<0.05 and P<0.01]

Human FM3 = molecular target: T1, Human FM3 (Homo sapiens, UniProt Q9HB89); experiment: Receptor binding study: 125I-NMU 8 labeled ligand binding inhibition to the FM3 membrane fraction; conditions: FM3/CHO membrane fraction, 25° C. for 60 min, read-out: FM3 RBA IC50
T1 construct: expressed in transfected cells; host or cells: CHO (dhfr-) cells; membrane fraction
T1 sequence (Q9HB89 1-426 R203Q): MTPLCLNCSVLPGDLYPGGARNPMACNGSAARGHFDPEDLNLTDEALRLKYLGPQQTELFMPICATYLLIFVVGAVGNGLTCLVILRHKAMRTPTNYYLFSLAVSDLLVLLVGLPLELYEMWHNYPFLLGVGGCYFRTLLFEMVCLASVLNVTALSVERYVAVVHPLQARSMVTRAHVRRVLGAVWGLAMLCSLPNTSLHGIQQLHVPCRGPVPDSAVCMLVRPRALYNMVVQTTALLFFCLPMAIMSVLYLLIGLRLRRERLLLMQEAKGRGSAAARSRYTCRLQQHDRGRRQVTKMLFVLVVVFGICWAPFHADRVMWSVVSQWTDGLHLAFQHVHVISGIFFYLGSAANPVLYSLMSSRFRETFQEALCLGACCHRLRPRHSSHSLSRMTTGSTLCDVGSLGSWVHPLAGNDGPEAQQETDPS
Method: Human FM3 represented CHO cells (dhfr-) and human TRI represented CHO cells (dhfr-) were cultured under 5% carbon dioxide conditions at 37° C. using a 10% dialyzed FBS-containing MEMα (Invitrogen) culture. The adhered cells were peeled with 10 ml of 0.1 mM EDTA containing DPB-S (Invitrogen) and cells were recovered by centrifugal separation at 4° C. at 1000 rpm for 10 min. 15 ml of homogenizer buffer (10 mM NaHCO3 (pH 7.4), 5 mM EDTA, Protein Inhibitors=0.5 mM PMSF, 10 μg/ml Pepstatin A, 20 μg/ml Leupeptin, 4 μg/ml E-64) were added to the cell pellets obtained. […]
Next, the reactivity between the radiation labeled ligand ^125I-NMU 8 and each receptor represented cell membrane fraction was analyzed by scatchard analysis using a reactive buffer (50 mM HEPES (pH 6.8), 1 mM EDTA, 0.1% BSA, Protein Inhibitors). […]
Namely, dilution strings of NMU derivatives and PEG conjugates were provided and diluted membrane fraction solutions (200 μl) were added. […] According to the aforementioned operations, the amount of binding of the labeled ligand remaining in the filter was measured and the IC50 values were calculated using graph pad PRISM (FIG. 4A (FM3 receptor binding), FIG. 4B (TGR1 receptor binding), FIG. 4C (FM3 receptor binding), FIG. 4D (TGR1 receptor binding) Table 9).

In the case of `CC(C)C[C@H](NC(=O)[C@H](Cc1ccccc1)NC(=O)[C@@H](N)Cc1ccc(O)cc1)C(=O)N[C@@H](Cc1ccccc1)C(=O)N[C@@H](CCCNC(=N)N)C(=O)N1CCC[C@H]1C(=O)N[C@@H](CCCNC(=N)N)C(=O)N[C@@H](CC(N)=O)C(N)=O` [NMU-8, Try-Phe-Leu-Phe-Arg-Pro-Arg-Asn-NH2], the “antifeedant activity via peripheral administration” value (male C57BL/6J mice) is reported as “did not express an antifeedant activity” and the IC50 (Human FM3) is reported as 0.19 nM.
